Experimental data taken from patent US9446048B2, “Methods for treating leukemia and disorders mediated by CBFβ and RUNX1 proteins” (The United States of America, as represented by the …, priority 2011, dated 2016).

Assays:
[1] = system: CBF leukemia cells (CBFB-MYH11); experiment: Leukemia transplantation murine model (Cbfb-MYH11 knock-in leukemia cells); assay type: in vivo, mouse; conditions: for leukemia burden in mice: 300 mg/kg/day in transgenic dough, similar efficacy as standard chemotherapy drugs; for survival of leukemic mice, combination with cytarabine: 300 mg/kg/p.o. days 10-40 plus cytarabine days 10-15
Procedure: Compound Ro5-3335 was tested in a CBFβ-MYH11 knock-in mouse model that faithfully models human leukemia with this fusion gene. The mouse model is described in Castilla et al, Failure of embryonic hematopoiesis and lethal hemorrhages in mouse embryos heterozygous for a knocked-in leukemia gene CBFB-MYH11. Cell. 1996; 87(4):687-696; Castilla et al., The fusion gene Cbfb-MYH11 blocks myeloid differentiation and predisposes mice to acute myelomonocytic leukemia. Nat. Genet. October 1999; 23[2]:144-146. The CBFB-MYH11 fusion gene in this mouse model initiates leukemia development with high penetrance but variable latency. However, when the leukemia cells are transplanted, the recipient mice develop leukemia with very short, consistent latency and 100% penetrance.
The B6129F1/J mice were used for injection of leukemia cells developed in the Cbfb-MYH11 knock-in mice. The recipient mice were irradiated at 900 rads before the leukemia cells were given through retro-orbital vein injection, typically at around 250,000-500,000 cells/mouse. Ten days after leukemia cell injection, the mice were given the candidate compounds Ro5-3335 and Ro24-7429 in transgenic dough, at 300 mg/kg/day for up to 30 days. Cytarabine was given for 6 consecutive days starting on day 10 after transplantation, at 100 mg/kg/day IP, and doxorubicin was given for 4 consecutive days starting on day 10 after transplantation, at 3 mg/kg/day IP. The mice were followed by daily inspection and bi-weekly analysis of peripheral blood, which was collected by retro-orbital bleeding. Leukemia cells in the peripheral blood were evaluated by FACS analysis and by blood smear observation. Moribund mice were sacrificed and necropsy conducted to ascertain the diagnosis of terminal leukemia.

[2] = was reported; cited from earlier work
zebrafish embryos = experiment: Blockage of zebrafish embryonic definitive hematopoiesis (cd41-GFP / lck-GFP transgenic embryos); assay type: in vivo, zebrafish (Danio rerio); conditions: for numbers of cd41-GFP cells in embryos: FIG. 4C, cd41-GFP transgenic embryos; for definitive hematopoiesis in zebrafish embryos: compounds added to water at 24 hours post fertilization, cd41-GFP or lck-GFP embryos
Procedure: Candidate compounds were tested in a zebrafish model to determine if they specifically block RUNX1-CBFβ interaction. RUNX1 and CBFβ are required for definitive hematopoiesis during embryogenesis, since RUNX1 and CBFβ knockout mouse embryos are devoid of definitive blood cells. Thus, inhibitors of RUNX1 and CBFβ should also be able to block definitive hematopoiesis as well. Standard protocols were used to breed and raise embryos from the cd41-GFP transgenic fish in which GFP marks hematopoietic stem cells, in addition to thrombocytes during embryogenesis, and from the lck-GFP transgenic fish in which GFP marks the T lineage cells. (See Westerfield M, ed The Zebrafish Book, A guide for the laboratory use of zebrafish (Danio rerio). Edition 3 ed. Eugene, Oreg.: University of Oregon Press; 1995; Lin et al. Analysis of thrombocyte development in CD41-GFP transgenic zebrafish. Blood. Dec. 1, 2005; 106(12):3803-3810; Bertrand et al. CD41+ cmyb+ precursors colonize the zebrafish pronephros by a novel migration route to initiate adult hematopoiesis. Development. May 2008; 135(10):1853-1862; Bertrand et al. Definitive hematopoiesis initiates through a committed erythromyeloid progenitor in the zebrafish embryo. Development. December 2007; 134(23):4147-4156; Kissa et al. Live imaging of emerging hematopoietic stem cells and early thymus colonization. Blood. Feb. 1, 2008; 111(3):1147-1156; Langenau et al. In vivo tracking of T cell development, ablation, and engraftment in transgenic zebrafish. Proc Natl Acad Sci USA. May 11, 2004; 101(19):7369-7374). Compounds were added to the water at 24 hours post fertilization and the final DMSO concentrations were less than 0.1%. The embryos were then observed, photographed, and videotaped with a Leica MZ16F dissecting scope, equipped with a Leica DC500 camera and a BioVision Vision-Mac™ video system. The numbers of GFP+ cells in each embryo were counted manually.

[3] = system: leukemia cells with CBF fusion genes; experiment: Selective cytotoxicity for CBF leukemia cell lines (ATPlite cellular ATP content); assay type: cell-based; conditions: 24 hours; for killing of leukemia cells with CBF fusion genes versus without: ATP content
Procedure: FIG. 5 depicts the results of treating leukemia cells with or without CBF fusion genes with Ro5-3335. […] The cellular ATP content was measured by a luciferase based viability assay with −100% as 100% cell killing.
Cell lines including HeLa, HL-60, Kasumi-1, Kasumi-6, ME-1, RS4 and REH were obtained from American Type Culture Collection (ATCC, Manassas, Va.). Cells in suspension at a density of 100,000 cells/ml were grown in a T175 flask with 20% FBS RPMI-1640 medium except 20% FBS IMDM medium for HL-60 cell line and the medium was renewed every 2-3 days. The cells were centrifuged and resuspended in 10% FBS phenol free OPTI-MEM medium which were seeded at 500 cells/well in 5 uL in 1536-well white solid-bottom plates using a Multidrop Combi dispenser (ThermoFisher Scientific Inc., Waltham, Mass.). The assay plates were incubated at 37° C. with 5% CO2 and 95% humidity for 2 hours prior to compound addition. Subsequently, 23 nL/well compound DMSO solutions or DMSO controls were transferred to the assay plates using a Kalypsys pintool workstation (Kalypsys, San Diego, Calif.). The plates were then incubated at 37° C. with 5% CO2 and 95% humidity for 24 hours followed by an addition of 4 uL/well of ATPlite reagent (PerkinElmer). After a 20 minute incubation, the plates were measured in the luminescence mode using a ViewLux plate reader (Perkinelmer, Waltham, Mass.).

RUNX1-CBFβ binding = target: T1, RUNX1-CBFβ binding (Homo sapiens, UniProt Q01196+Q13951); experiment: AlphaScreen high-throughput screen for blocking RUNX1-CBFβ interaction; conditions: HTS for RUNX1-CBFβ interaction inhibitors
T1 construct: The full length biotinylated RUNX1, histagged CBFβ and untagged CBFβ proteins were purchased; biotin (biotinylated); purchased Genecopoeia (Germantown, Md.); host or cells: wheat germ extract cell-free protein translation system
T1 sequence (Q01196 whole entry): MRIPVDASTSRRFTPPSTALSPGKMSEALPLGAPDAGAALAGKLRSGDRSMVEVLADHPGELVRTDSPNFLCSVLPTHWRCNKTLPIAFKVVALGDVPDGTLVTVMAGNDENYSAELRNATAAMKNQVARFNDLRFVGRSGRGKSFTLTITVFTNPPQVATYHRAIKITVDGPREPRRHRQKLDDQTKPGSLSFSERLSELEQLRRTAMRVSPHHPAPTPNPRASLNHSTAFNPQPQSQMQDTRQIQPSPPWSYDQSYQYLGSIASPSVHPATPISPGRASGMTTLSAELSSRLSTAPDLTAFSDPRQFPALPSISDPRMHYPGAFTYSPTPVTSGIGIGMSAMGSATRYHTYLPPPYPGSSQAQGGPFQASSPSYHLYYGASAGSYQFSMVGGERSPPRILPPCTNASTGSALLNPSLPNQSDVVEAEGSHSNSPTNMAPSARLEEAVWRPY
T1 sequence (Q13951 whole entry): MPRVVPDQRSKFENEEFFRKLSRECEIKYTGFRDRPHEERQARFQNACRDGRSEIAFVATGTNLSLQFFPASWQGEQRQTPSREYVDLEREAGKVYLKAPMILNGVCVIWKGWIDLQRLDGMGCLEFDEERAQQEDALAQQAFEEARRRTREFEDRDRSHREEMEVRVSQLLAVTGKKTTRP
Procedure: An Amplified Luminescence Proximity Homogenous Assay (ALPHA) Screen format (PerkinElmer) was used to develop an assay for identifying compounds that affect RUNX1-CBFβ binding (see FIG. 3) optimized for high throughput screening (HTS). The full length biotinylated RUNX1, histagged CBFβ and untagged CBFβ proteins were purchased from Genecopoeia (Germantown, Md.) that were prepared in a wheat germ extract cell-free protein translation system. All three proteins were purified using an affinity column and FPLC chromatography. The assay buffer was comprised of 25 mM HEPES (pH 7.4), 110 mM KC1, 2 mM MgCl2, 10 mM NaCl, 5 mM DTT, and 0.01% Tween-20. The AlphaScreen assay platform (PerkinElmer) was applied for the measurement of interaction of Runx1 protein with the CBFb protein. The assay was developed in 384-well plate format and optimized in 1536-well plate format for high throughput screening. […] The assay plate was measured in an AlphaScreen mode using an Envision plate reader (Perkin Elmer, Waltham, Mass.). […]
Synthesized, tagged RUNX1 and CBFβ were used in the assay and a total of over 240,000 compounds at 7 concentrations each were screened with this assay. […] Confirmatory ALPHA and HTRF (homogeneous time resolved fluorescence) assays were performed to prioritize compounds for their ability to inhibit RUNX1-CBFβ interaction.

For `CNC1=Nc2ccc(Cl)cc2C(c2ccc[nH]2)=NC1` [Ro24-7429, 7-chloro-N-methyl-5-1(1H-pyrrol-2-yl)-3H-1,4-benzodiazepin-2-amine], the “leukemia burden in mice” value [1] is listed as “significantly reduced”, the “survival of leukemic mice, combination with cytarabine” value [1] is listed as “trend of synergy” and the “toxicological profile relative to Ro5-3335” value [2] is listed as “improved toxicological profile”. For the same compound, the “numbers of cd41-GFP cells in embryos” value (zebrafish embryos) was “reduced numbers”, the “definitive hematopoiesis in zebrafish embryos” value (“definitive hematopoiesis” below) (zebrafish embryos) was “significant reduction” and the “definitive hematopoiesis” value (zebrafish embryos; listed as J8) was “reduce definitive hematopoiesis”.
In the case of `O=C1CN=C(c2ccc[nH]2)c2cc(Cl)ccc2N1` [Ro5-3335, 7-chloro-5-(1H-pyrrol-2-yl)-1,3,-dihydro-1,4-benzodiaepin-2-one], the “leukemia burden in mice” value [1] is reported as “significantly reduced”, the “survival of leukemic mice, combination with cytarabine” value [1] is reported as “synergy” and the “leukemia cell burden (c-kit+ cells)” value ([1]; FIG. 9, 10 days after treatments started) is reported as “reduced leukemia cell burden”. The “killing of leukemia cells with CBF fusion genes versus without” value [3] was “preferentially killed”, the “cell killing potency for CBF leukemia cell lines relative to leukemia cell lines without CBF fusion genes” value ([3]; ATP content IC50 comparison) was 6-50 fold and the “numbers of cd41-GFP cells in embryos” value (zebrafish embryos) was “reduced numbers”. For the same compound, the “definitive hematopoiesis” value (zebrafish embryos) was “significant reduction” and the “definitive hematopoiesis” value (zebrafish embryos; listed as J2) was “reduce definitive hematopoiesis”.
In the case of `NCC(=O)Nc1ccc(Cl)cc1C(=O)c1ccc[nH]1` [MLS000766105, 2-amino-N-[4-chloro-2-(1H-pyrrole-2-carbonyl)phenyl]acetamide], the “activity in the original screening” value (RUNX1-CBFβ binding) is reported as “active”, the “killing of leukemia cells with CBF fusion genes versus without” value [3] is reported as “preferentially killed” and the “numbers of cd41-GFP cells in embryos” value (zebrafish embryos) is reported as “reduced numbers”. For the same compound, the “definitive hematopoiesis” value (zebrafish embryos) was “significant reduction” and the “definitive hematopoiesis” value (zebrafish embryos; listed as J1) was “reduce definitive hematopoiesis”.
For `Nc1ccn([C@@H]2O[C@H](CO)[C@@H](O)[C@@H]2O)c(=O)n1` [cytarabine, reference compound], the “survival of leukemic mice, single agent” value ([1]; second experiment, cytarabine on days 10-15) was “failed to extend survival”.
